Assay: Intrinsic dissolution rate (IDR)
Assay type: physicochemical
Conditions: for Detection in dissolution medium (IDR test): total 120 min
Experimental: Testing media: water, 0.1N HCl, pH 6.8 USP buffer
About 200 mg Polymorph Form A was weighed into the intrinsic dissolution apparatus (diameter: 0.795 cm) and compressed for 1 minute with 1 ton compression force to make the material compact. The intrinsic dissolution apparatus was slid into the dissolution test chuck and tightened. The shaft in the spindle was adjusted to ensure the exposed surface of the compacted tablet was 3.8 cm from the bottom of the vessel when lowered. The temperature of chamber water was set at 37° C., the shaft rotation at 100 rpm, and the sampling time points at 2, 5, 10, 15, 20, 30, 45, 60, 90 and 120 min. 5 mL of solution was sampled at each time point, and the samples filtered with 0.45 μm filter. The concentration of the filtrates was analyzed by HPLC.

Cc1cc(C)c(-c2ccc(NC(=O)[C@H](Cc3ccc(C(=O)NCCS(=O)(=O)[O-])cc3)c3ccc(-c4ccc(C(C)(C)C)cc4)cc3)cc2)c(C)c1.[Na+] [Polymorph Form A, Sodium (R)-2-(4-(2-(4′-(tert-butyl)-[1,1′-biphenyl]-4-yl)-3-oxo-3-((2′,4′,6′-trimethyl-[1,1′-biphenyl]-4-yl)amino)propyl)benzamido)ethane-1-sulfonate]
Detection in dissolution medium (IDR test) (0.1N HCl): could not be detected | Intrinsic dissolution rate (mg/cm^2/min) (Water, 37° C., 100 rpm, from data of 10, 15 and 20 min): 0.9681 mg/cm^2/min | Detection in dissolution medium (IDR test) (pH 6.8 USP buffer): could not be detected | Concentration in dissolution medium (IDR test) (water, within 5 min, not detected, LOQ): < 305.1 ng/mL

Reference: US12208071B2, “Glucagon receptor antagonists” (LIGAND PHARMACEUTICALS INCORPORATED, priority 2018, dated 2025)
